The record followed here is the PolyMetriX glass transition set.

The structures appear in SMILES notation.

`*C(=O)c1ccc(Oc2ccc(-c3ccc(Oc4ccc(C(=O)c5ccc6nc(*)ccc6c5)cc4)cc3)cc2)cc1` (repeat unit) returned a glass transition temperature of 155.00 °C.

On to `*C(=O)c1ccc(Oc2ccc(C(C)(C)c3ccc(Oc4ccc(*)s4)cc3)cc2)cc1` (repeat unit), for which the glass transition temperature amounted to 151.00 °C.

In the case of `*Oc1cc(OC(=O)c2ccc(Oc3ccc(C4(c5ccc(Oc6ccc(C(*)=O)cc6)cc5)CCC(C(C)(C)C)CC4)cc3)cc2)ccc1C12CC3CC(CC(C3)C1)C2` (repeat unit), the glass transition temperature was 180.00 °C.

As for `*Oc1ccc(C(C)(C)c2ccc(C(C)(C)c3ccc(Oc4ccc(C(=O)Nc5ccc(NC(=O)c6ccc(*)cc6)cc5)cc4)cc3)cc2)cc1` (repeat unit), the glass transition temperature worked out at 163.00 °C.

As for `*Oc1ccc(C(C)(C)c2ccc(Oc3ccc(C(=O)Nc4ccc(NC(=O)c5ccc(*)cc5)cc4)cc3)cc2)cc1` (repeat unit), the glass transition temperature came out at 230.00 °C.

On to `*Oc1ccc(C(C)(C)c2ccc(Oc3ccc(C(=O)c4ccc(C(c5ccc(C(=O)c6ccc(*)cc6)cc5)(C(F)(F)F)C(F)(F)F)cc4)cc3)cc2)cc1` (repeat unit), for which the glass transition temperature was determined as 181.00 °C.

As for `*Oc1ccc(C(C)(C)c2ccc(Oc3ccc(C(=O)c4cccc(C(=O)c5ccc(*)cc5)c4)cc3)cc2)cc1` (repeat unit), the glass transition temperature is 153.00 °C.

`*Oc1ccc(C(C)(C)c2cccc(C(C)(C)c3ccc(Oc4ccc(C(=O)Nc5ccc(Cc6ccc(NC(=O)c7ccc(*)cc7)cc6)cc5)cc4)cc3)c2)cc1` (repeat unit) displayed a glass transition temperature of 149.00 °C.

Regarding `*Oc1ccc(C(C)(c2ccccc2)c2ccc(Oc3ccc(C(=O)C(=O)c4ccc(*)cc4)cc3)cc2)cc1` (repeat unit), the glass transition temperature was found to be 177.00 °C.

In the case of `*Oc1ccc(C2(C)CCC(C(C)(C)c3ccc(Oc4ccc(C(=O)c5ccc(*)cc5)cc4)cc3)CC2)cc1` (repeat unit), the glass transition temperature stood at 200.00 °C.

Take `*Oc1ccc(C2(c3ccc(OC(=O)c4ccc(Oc5ccc(C6(c7ccc(Oc8ccc(C(*)=O)cc8)cc7)CCC(C(C)(C)C)CC6)cc5)cc4)cc3)CC3CC2C2CCCC32)cc1` (repeat unit): the glass transition temperature is 181.00 °C.

The compound `*Oc1ccc(C2(c3ccc(OC(=O)c4ccc(Oc5ccc(C6(c7ccc(Oc8ccc(C(*)=O)cc8)cc7)CCC(C(C)(C)C)CC6)cc5)cc4)cc3)CCCCCCCCCCC2)cc1` (repeat unit) returned a glass transition temperature of 181.00 °C.

`*Oc1ccc(C2(c3ccc(Oc4ccc(C(=O)c5cccc(C(=O)c6ccc(*)cc6)c5)cc4)c(C)c3)CCC3CCCCC3C2)cc1C` (repeat unit) had a glass transition temperature of 185.00 °C.

Regarding `*Oc1ccc(NC(=O)c2ccc(Oc3ccc(C(C)(C)c4ccc(C(C)(C)c5ccc(Oc6ccc(C(=O)Nc7ccc(Oc8ccc(C(c9ccc(*)cc9)(C(F)(F)F)C(F)(F)F)cc8)cc7)cc6)cc5)cc4)cc3)cc2)cc1` (repeat unit), the glass transition temperature is 169.00 °C.

As to `*Oc1cccc(NC(=O)c2ccc(Oc3ccc(C(C)(C)c4ccc(C(C)(C)c5ccc(Oc6ccc(C(=O)Nc7ccc(*)cc7)cc6)cc5)cc4)cc3)cc2)c1` (repeat unit), the glass transition temperature was 168.00 °C.

Regarding `*c1ccc(-c2nc3cc(C(=O)c4ccc5nc(-c6ccccc6)c(-c6ccc(N7C(=O)C8OC9C(=O)N(*)C(=O)C9C8C7=O)cc6)nc5c4)ccc3nc2-c2ccccc2)cc1` (repeat unit), the glass transition temperature is 255.00 °C.

On to `*c1ccc(Oc2ccc(C(=O)c3ccc(Oc4ccc(-c5c6c(c(*)c7ccccc57)C(=O)N(C)C6=O)cc4)cc3)cc2)cc1` (repeat unit), for which the glass transition temperature worked out at 283.00 °C.

`*c1ccc(Oc2ccc(C(=O)c3ccc(Oc4ccc(-c5c6c(c(*)c7ccccc57)C(=O)N(CCCCCCCCCCCC)C6=O)cc4)cc3)cc2)cc1` (repeat unit) yielded a glass transition temperature of 147.00 °C.

With `*c1ccc(Oc2ccc(C(=O)c3ccc(Oc4ccc(C5(*)OC(=O)c6ccccc65)cc4)cc3)cc2)cc1` (repeat unit), the glass transition temperature is 218.00 °C.
